Assay results published in US12187679B2, “Hydroxylated psilocybin derivatives and methods of using” (Enveric Biosciences Canada Inc., priority 2020, dated 2025).

What was measured:
5-HT2A receptor = 5-HT2A receptor (Homo sapiens, UniProt P28223); test: Fluo-8 calcium release assay, serotonin with and without compound (positive allosteric modulation), +5-HT2A cells; format: cell-based; conditions: serotonin 3 uM with compound 3 uM, FIG. 8C
Excerpt: (§1) Cell lines for pharmacology assays. CHO-K1/Galpha15 (GenScript, M00257) (−5-HT2A) and CHO-K1/5-HT2A (GenScript, M00250) (+5-HT2A) cells lines were used in both toxicology/growth inhibition (MTT) and calcium release assays. Briefly, CHO-K1/Galpha15 is a control cell line that constitutively expresses Galpha15 which is a promiscuous Gq protein. It is engineered as a host cell, allowing transfected receptor(s) to signal through the Gq signal transduction pathway and mobilize intracellular calcium from the endoplasmic reticulum (ER). These control cells lack any transgene encoding 5-HT2A receptors, thus preventing calcium mobilization in response to 5-HT2A activation. Conversely, CHO-K1/5-HT2A cells stably express 5-HT2A receptor in the CHO-K1 host background. […]
(§2) Increase in cytosolic calcium concentration by 5-HT2A activation and assessment of modulation. Changes in intracellular calcium concentration due to the treatment with assay compounds was measured using Fluo-8 dye (Abcam, #ab112129) according to the manufacturer's instructions. […] Fluorescence (ex 490 nm/em 525 nm) obtained after the addition of molecules was expressed relative to values obtained before addition of the molecules (relative Fluo-8 fluorescence=Fmax/F0, where Fmax=maximum fluorescence and F0=baseline fluorescence). Fluorescence intensities were measured using a Spectramax ID3 plate reader (www.moleculardevices.com). […]

[1] = tested on: CHO-K1/Galpha15 cells lacking 5-HT2A; test: Fluo-8 calcium release control assay in -5-HT2A cells; format: cell-based, Chinese Hamster; conditions: FIG. 8D panel A
Excerpt: as §1, §2

Sequence of 5-HT2A receptor (P28223 whole entry): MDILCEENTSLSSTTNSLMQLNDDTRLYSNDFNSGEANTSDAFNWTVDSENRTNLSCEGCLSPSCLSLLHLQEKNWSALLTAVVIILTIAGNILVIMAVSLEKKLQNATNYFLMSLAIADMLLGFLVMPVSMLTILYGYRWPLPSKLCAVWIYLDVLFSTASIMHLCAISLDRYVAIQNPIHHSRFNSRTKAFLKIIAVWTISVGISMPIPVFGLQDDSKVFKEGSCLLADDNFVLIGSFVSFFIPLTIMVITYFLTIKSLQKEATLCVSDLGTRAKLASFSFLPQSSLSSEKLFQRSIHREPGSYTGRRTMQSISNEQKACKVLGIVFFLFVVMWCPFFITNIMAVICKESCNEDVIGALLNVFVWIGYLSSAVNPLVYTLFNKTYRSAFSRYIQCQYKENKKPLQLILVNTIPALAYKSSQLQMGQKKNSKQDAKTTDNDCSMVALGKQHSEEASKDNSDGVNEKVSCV

In the case of `CC(=O)NCCc1c[nH]c2c(C)ccc(O)c12` [compound (IV), N-[2-(4-hydroxy-7-methyl-1H-indol-3-yl)ethyl]acetamide], the “time-dependent calcium flux (relative fluorescence, RFU) in response to serotonin with compound vs serotonin alone” value (5-HT2A receptor) was “elevated flux”.
With `NCCc1c[nH]c2ccc(O)cc12` [serotonin, 5-hydroxytryptamine] the “calcium response (relative Fluo-8 fluorescence)” value [1] was “did not exhibit a response”.
